Laboratory results published in patent publication US20240286998A1, “F[…], ANALOGUES THEREOF, AND METHODS USING SAME” (Saint Joseph's University, priority 2021, published 2024).
Where a name gives a salt, the structure may show the parent alone. Read-outs that look alike come from different tables or passages of the source.

How the values were obtained:
5-HT2B = 5-HT2B (Homo sapiens (Human), UniProt P41595); assay: 5-HT2B Gq-mediated calcium flux functional assay; type: cell-based
5-HT2A = 5-HT2A (Homo sapiens (Human), UniProt P28223); assay: 5-HT2A Gq-mediated calcium flux functional assay; type: cell-based
5-HT1A = 5-HT1A (Homo sapiens (Human), UniProt P08908); assay: 5-HT1A Gi/o-mediated cAMP inhibition, GloSensor assay; type: cell-based; conditions: for 5-HT1A-cAMP Emax (% 5-HT): cAMP inhibition, 0.2 μM isoproterenol, IA = Inactive
Serotonin 5-HT2A (human) = Serotonin 5-HT2A (human) (Homo sapiens (Human), UniProt P28223); assay: 5-HT2A receptor binding, [3H]-ketanserin competition in membrane fractions; conditions: 1 nM [3H]-ketanserin, Cheng-Prusoff, N=1-3
5-HT2C = 5-HT2C (Homo sapiens (Human), UniProt P28335); assay: 5-HT2C Gq-mediated calcium flux functional assay; type: cell-based
C57BL/6J mice = assay: Head-Twitch Response (HTR) in mice; type: in vivo; conditions: for Duration of HTR above baseline: C57BL/6J mice, ascending and descending arm dose; for ED50: Mus musculus, ip, 0.5 h
Method: Male C57BL/6J mice (6-8 weeks old) were obtained from Jackson Laboratories (Bar Harbor, ME) and housed in a vivarium at the University of California San Diego, an AAALAC-approved animal facility that meets all federal and state requirements for care and treatment of laboratory animals. All animal experiments were carried out in accordance with NIH guidelines and were approved by the UCSD Institutional Animal Care and Use Committee. Mice were housed up to four per cage in a climate-controlled room on a reverse-light cycle (lights on at 1900 h, off at 0700 h). Animals were provided with ad libitum access to food and water, with the exception of during behavioral testing.
Testing was conducted between 1000 and 1800 h. Head movements were recorded using a head-mounted magnet and a magnetometer coil as described in Halberstadt et al. (Psychopharmacology, 2013, 227(4):727-739). For the head mounted magnet, mice were anesthetized, an incision was made in the scalp, and a neodymium magnet was attached to the dorsal surface of the cranium using dental cement. Following a 2-week recovery period, behavioral experiments were conducted in a well-lit room. At least 7 days occurred between sessions to avoid any carryover effects. Test substances (i.e., dimethyltryptamine (DMT), diethyltryptamine (DET), psilocybin, 6-fluoro-diethyltryptamine (6-F-DET), compounds 3-4, 6, 9, 12-13, 22, 33, 41, 69, 88, 166, and 178) were administered intraperitoneally (IP) at a volume of 5 mL/kg. Mice were treated with vehicle (saline) or 6 doses of the test compound and then placed in a glass cylinder surrounded by a magnetometer coil and tested for 30 min. Coil voltage was filtered (1 kHz lowpass), digitized (20 kHz sampling rate) and saved to disk using a Powerlab/8SP with LabChart v 7.3.2 (ADInstruments, Colorado Springs, CO).
The entire 30 min recordings were examined for head twitches. Established procedures based on artificial intelligence were used to identify head twitches in the recordings (Scientific Reports, 2020, 10(1):1-12). HTR counts were analyzed using one-way analyses of variance (ANOVA), followed by post hoc pairwise comparisons between individual groups and vehicle using Dunnett's multiple comparisons test. […] Median effective doses (ED50 values) and 95% confidence intervals (95% CI) were calculated using nonlinear regression (Prism 9.0.2, GraphPad Software, San Diego, CA) (Table 4 and FIGS. 1-3).

[1] = IA = Inactive, N=1-3, read-out: 5-HT2B-Ca2+ FLUX pEC50 (converted)
[2] = IA = Inactive, N=1-3, read-out: 5-HT2A-Ca2+ FLUX pEC50 (converted)
[3] = IA = Inactive, N=1-3, read-out: 5-HT2C-Ca2+ FLUX pEC50 (converted)

Chain of 5-HT2B (P41595 whole entry): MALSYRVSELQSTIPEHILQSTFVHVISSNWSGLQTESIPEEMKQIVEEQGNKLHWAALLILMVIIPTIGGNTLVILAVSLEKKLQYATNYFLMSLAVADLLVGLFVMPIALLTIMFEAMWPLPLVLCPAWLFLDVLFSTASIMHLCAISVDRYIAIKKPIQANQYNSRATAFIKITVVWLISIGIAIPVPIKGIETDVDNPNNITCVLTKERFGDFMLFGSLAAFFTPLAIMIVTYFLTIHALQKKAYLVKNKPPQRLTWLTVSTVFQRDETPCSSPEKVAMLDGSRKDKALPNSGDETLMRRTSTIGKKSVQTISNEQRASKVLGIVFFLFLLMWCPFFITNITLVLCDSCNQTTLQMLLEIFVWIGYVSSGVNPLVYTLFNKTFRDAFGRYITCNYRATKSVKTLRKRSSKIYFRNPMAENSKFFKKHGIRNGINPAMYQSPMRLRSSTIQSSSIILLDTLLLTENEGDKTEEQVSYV
Chain of 5-HT2C (P28335 whole entry, looked up): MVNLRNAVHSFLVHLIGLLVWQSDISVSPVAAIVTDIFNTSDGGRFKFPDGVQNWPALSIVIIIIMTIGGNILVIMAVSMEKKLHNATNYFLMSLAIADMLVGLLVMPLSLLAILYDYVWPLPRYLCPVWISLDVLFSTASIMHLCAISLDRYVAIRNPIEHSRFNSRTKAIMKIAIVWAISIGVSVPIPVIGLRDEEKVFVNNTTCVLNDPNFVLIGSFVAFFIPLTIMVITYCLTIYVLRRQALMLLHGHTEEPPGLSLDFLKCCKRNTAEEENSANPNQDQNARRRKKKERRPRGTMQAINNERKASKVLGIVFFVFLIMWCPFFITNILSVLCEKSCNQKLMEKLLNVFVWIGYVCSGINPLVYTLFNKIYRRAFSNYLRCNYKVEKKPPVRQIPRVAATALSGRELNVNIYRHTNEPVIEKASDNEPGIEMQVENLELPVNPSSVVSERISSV

SMILES | 5-HT2B-Ca2+ FLUX Emax (% 5-HT) (5-HT2B; IA = Inactive, N=1-3) | 5-HT2A-Ca2+ FLUX Emax (% 5-HT) (5-HT2A; IA = Inactive, N=1-3) | EC50 (5-HT1A) [nM] | 5-HT1A-cAMP Emax (% 5-HT) (5-HT1A) | melting point [°C] | 5-HT2A pKi ± SEM (Serotonin 5-HT2A (human)) | 5-HT2C-Ca2+ FLUX Emax (% 5-HT) (5-HT2C; IA = Inactive, N=1-3) | other results
CCN(CCc1c[nH]c2ccc(F)cc12)C(C)C [Example 1, N-ethyl-N-(2-(5-fluoro-1H-indol-3-yl)ethyl)propan-2-amine] | 100.0 ± 0.6 | 102.6 ± 0.8 | 589 | 86.4 ± 2.6 | 77.1 to 78.1 | 5.95 ± 0.07 | 107.6 ± 2.3 | EC50 (5-HT2B): 1.32 nM; EC50 (5-HT2A): 1.35 nM; EC50 (5-HT2C): 6.61 nM
CN(C)CCc1c[nH]c2cccc(O)c12 [psilocin, reference compound] | – | – | – | – | – | – | – | Duration of HTR above baseline (C57BL/6J mice): about 35 minutes
CN1CCC(c2c[nH]c3cc(F)c(F)cc23)C1 (stereo not shown) [compound 19, 5,6-difluoro-3-(1-methylpyrrolidin-3-yl)-1H-indole] | 32.2 ± 2.2 | 53.3 ± 3.6 | 2950 | 113.3 ± 4.0 | 119.5 to 120.3 | 6.92 | 70.5 ± 2.3 | EC50 (5-HT2B; [1]): 1.51 nM; EC50 (5-HT2A; [2]): 3.89 nM; EC50 (5-HT2C; [3]): 3.63 nM
CCN(C)CCc1c[nH]c2c(F)cc(F)cc12 [compound 69, 2-(5,7-difluoro-1H-indol-3-yl)-N-ethyl-N-methylethan-1-amine] | – | – | – | – | – | 6.90 ± 0.002 | – | ED50 (C57BL/6J mice; read-out: HTR ED50 μmol/kg (95% CI)): 4.81 µmol/kg; ED50 (C57BL/6J mice; read-out: HTR ED50 mg/kg (95% CI)): 1.32 mg/kg
CN1CCC(c2c[nH]c3ccc(F)cc23)C1 (stereo not shown) [compound 15, 5-fluoro-3-(1-methylpyrrolidin-3-yl)-1H-indole] | – | – | – | – | 122.8 to 125.1 | 6.98 | – | –
CN1CC(c2c[nH]c3ccc(F)cc23)C1 [compound 29, 5-fluoro-3-(1-methylazetidin-3-yl)-1H-indole] | – | – | 851 | 64.0 ± 3.5 | 119 to 122.8 | 6.30 | 28.5 ± 0.8 | EC50 (5-HT2C; [3]): 49 nM
CCN(CC)CCc1c[nH]c2cc(F)ccc12 [6-F-DET, 6-fluoro-N,N-diethyltryptamine, reference compound] | – | – | – | – | – | – | – | HTR counts over baseline / induction of HTR (C57BL/6J mice; compared to vehicle): inactive
CN(C)CCc1c[nH]c2ccccc12 [DMT, dimethyl tryptamine, reference compound] | – | – | – | – | – | – | – | Duration of HTR above baseline (C57BL/6J mice): about 10 minutes
CN1CCC[C@@H]1Cc1c[nH]c2ccc(F)cc12 [compound 28, (R)-5-fluoro-3-((1-methylpyrrolidin-2-yl)methyl)-1H-indole] | 90.8 ± 1.1 | 91.1 ± 2.5 | 72.4 | 101.20 ± 1.7 | 127.6 to 131.7 | 7.19 ± 0.03 | 92.8 ± 0.9 | EC50 (5-HT2B): 0.724 nM; EC50 (5-HT2A): 2.34 nM; EC50 (5-HT2C): 1.74 nM
CN1CCC[C@H]1Cc1c[nH]c2ccc(F)cc12 [compound 27, (S)-5-fluoro-3-((1-methylpyrrolidin-2-yl)methyl)-1H-indole] | 35.3 ± 1.3 | 34.4 ± 2.3 | 562 | 88.2 ± 3.6 | 135 to 136.4 | 5.57 | 18.5 ± 0.7 | EC50 (5-HT2B): 14.1 nM; EC50 (5-HT2A): 58.9 nM; EC50 (5-HT2C): 56.2 nM
CN(CCc1c[nH]c2ccc(F)cc12)C1CCC1 [compound 51, N-(2-(5-fluoro-1H-indol-3-yl)ethyl)-N-methylcyclobutanamine] | – | – | – | – | 219.4 to 219.7 | 6.80 ± 0.02 | – | –
CC(C)N(CCc1c[nH]c2ccc(F)cc12)C1CC1 [compound 168, N-(2-(5-fluoro-1H-indol-3-yl)ethyl)-N-isopropylcyclopropanamine] | – | – | – | – | 196.4 to 196.8 | 6.18 | – | –
CCCN(CC)CCc1c[nH]c2ccc(F)cc12 (as salt: HCl) [Example 6, N-ethyl-N-(2-(5-fluoro-1H-indol-3-yl)ethyl)propan-1-amine] | – | – | – | – | 154.5 to 155.4 | – | – | –
CCCN(CC)CCc1c[nH]c2c(F)c(F)c(F)cc12 (as salt: hydrochloride) [compound 165, N-ethyl-N-[2-(5,6,7-trifluoro-1H-indol-3-yl)ethyl]propan-1-amine] | – | – | – | – | 188 to 188.8 | – | – | –
CCN(C)CCc1c[nH]c2c(F)c(F)c(F)cc12 [compound 164, N-ethyl-N-methyl-2-(5,6,7-trifluoro-1H-indol-3-yl)ethan-1-amine] | 33.2 ± 0.9 | 76.1 ± 1.1 | – | – | 212.1 to 212.5 | 6.90 ± 0.13 | 89.3 ± 1.3 | EC50 (5-HT2B): 6.17 nM; EC50 (5-HT2A): 6.46 nM; EC50 (5-HT2C): 18.6 nM
CCCN(CC)CC(=O)c1c[nH]c2ccc(F)cc12 [compound 24, 2-(ethyl(propyl)amino)-1-(5-fluoro-1H-indol-3-yl)ethan-1-one] | – | 81.0 ± 2.4 | 0.49 | 20.5 ± 1.4 | 203.4 to 205.6 | – | – | EC50 (5-HT2A; [2]): 1410 nM
CCN(CCc1c[nH]c2ccc(F)cc12)C1CCC1 [compound 31, N-ethyl-N-(2-(5-fluoro-1H-indol-3-yl)ethyl)cyclobutanamine] | 96.5 ± 1.4 | 104.5 ± 1.8 | 22.4 | 100.7 ± 1.8 | 89.4 to 90.3 | 6.26 ± 0.32 | 98.0 ± 1.9 | EC50 (5-HT2B): 2.51 nM; EC50 (5-HT2A): 2.04 nM; EC50 (5-HT2C): 57.5 nM
CCN(CCc1c[nH]c2ccc(F)cc12)C1CC1 (as salt: hydrochloride) | – | – | – | – | 219.7 to 220.1 | – | – | –
CN1CCC(c2c[nH]c3c(F)cccc23)C1 (stereo not shown) [compound 23, 7-fluoro-3-(1-methylpyrrolidin-3-yl)-1H-indole] | 19.7 ± 0.8 | 41.8 ± 1.6 | 22.4 | 99.2 ± 1.7 | 129 to 132.1 | 6.43 | 26.6 ± 1.1 | EC50 (5-HT2B; [1]): 4.37 nM; EC50 (5-HT2A; [2]): 8.51 nM; EC50 (5-HT2C; [3]): 20.9 nM
